Assay results: ChEMBL document CHEMBL2331210, “New 2-benzylsulfanyl-nicotinic acid based 1,3,4-oxadiazoles: their synthesis and biological evaluation” (2013)
Converted amounts (≈) assume the structure as drawn.

How the values were obtained:
UO-31 = test: Antitumor activity against human UO31 cells assessed as cell growth at 0.1 uM; assay type: functional; conditions: read-out: Activity
TK-10 = test: Antitumor activity against human TK10 cells assessed as cell growth at 0.1 uM; assay type: functional; conditions: read-out: Activity
SN12C = test: Antitumor activity against human SN12C cells assessed as cell growth at 0.1 uM; assay type: functional; conditions: read-out: Activity
RXF 393 = test: Antitumor activity against human RXF393 cells assessed as cell growth at 0.1 uM; assay type: functional; conditions: read-out: Activity
ACHN = test: Antitumor activity against human ACHN cells assessed as cell growth at 0.1 uM; assay type: functional; conditions: read-out: Activity
CAKI-1 = test: Antitumor activity against human CAKI-1 cells assessed as cell growth at 0.1 uM; assay type: functional; conditions: read-out: Activity
A498 = test: Antitumor activity against human A498 cells assessed as cell growth at 0.1 uM; assay type: functional; conditions: read-out: Activity
SK-OV-3 = test: Antitumor activity against human SKOV3 cells assessed as cell growth at 0.1 uM; assay type: functional; conditions: read-out: Activity
NCI/ADR-RES = test: Antitumor activity against human NCI/ADR-RES cells assessed as cell growth at 0.1 uM; assay type: functional; conditions: read-out: Activity
OVCAR-8 = test: Antitumor activity against human OVCAR8 cells assessed as cell growth at 0.1 uM; assay type: functional; conditions: read-out: Activity
OVCAR-5 = test: Antitumor activity against human OVCAR5 cells assessed as cell growth at 0.1 uM; assay type: functional; conditions: read-out: Activity
OVCAR-3 = test: Antitumor activity against human OVCAR3 cells assessed as cell growth at 0.1 uM; assay type: functional; conditions: read-out: Activity
OVCAR-4 = test: Antitumor activity against human OVCAR4 cells assessed as cell growth at 0.1 uM; assay type: functional; conditions: read-out: Activity
IGROV-1 = test: Antitumor activity against human IGROV1 cells assessed as cell growth at 0.1 uM; assay type: functional; conditions: read-out: Activity
UACC-62 = test: Antitumor activity against human UACC62 cells assessed as cell growth at 0.1 uM; assay type: functional; conditions: read-out: Activity
UACC-257 = test: Antitumor activity against human UACC257 cells assessed as cell growth at 0.1 uM; assay type: functional; conditions: read-out: Activity
SK-MEL-5 = test: Antitumor activity against human SK-MEL-5 cells assessed as cell growth at 0.1 uM; assay type: functional; conditions: read-out: Activity
SK-MEL-28 = test: Antitumor activity against human SK-MEL-28 cells assessed as cell growth at 0.1 uM; assay type: functional; conditions: read-out: Activity
MDA-MB-435 = test: Antitumor activity against human MDA-MB-435 cells assessed as cell growth at 0.1 uM; assay type: functional; conditions: read-out: Activity
M14 = test: Antitumor activity against human M14 cells assessed as cell growth at 0.1 uM; assay type: functional; conditions: read-out: Activity
Malme-3M = test: Antitumor activity against human MALME-3M cells assessed as cell growth at 0.1 uM; assay type: functional; conditions: read-out: Activity
LOX IMVI = test: Antitumor activity against human LOXIMVI cells assessed as cell growth at 0.1 uM; assay type: functional; conditions: read-out: Activity
U-251 = test: Antitumor activity against human U251 cells assessed as cell growth at 0.1 uM; assay type: functional; conditions: read-out: Activity
SNB-75 = test: Antitumor activity against human SNB75 cells assessed as cell growth at 0.1 uM; assay type: functional; conditions: read-out: Activity
SF-539 = test: Antitumor activity against human SF539 cells assessed as cell growth at 0.1 uM; assay type: functional; conditions: read-out: Activity
SNB-19 = test: Antitumor activity against human SNB19 cells assessed as cell growth at 0.1 uM; assay type: functional; conditions: read-out: Activity
SF-295 = test: Antitumor activity against human SF295 cells assessed as cell growth at 0.1 uM; assay type: functional; conditions: read-out: Activity
SF-268 = test: Antitumor activity against human SF268 cells assessed as cell growth at 0.1 uM; assay type: functional; conditions: read-out: Activity
SW-620 = test: Antitumor activity against human SW620 cells assessed as cell growth at 0.1 uM; assay type: functional; conditions: read-out: Activity
HCT-15 = test: Antitumor activity against human HCT15 cells assessed as cell growth at 0.1 uM; assay type: functional; conditions: read-out: Activity
HT-29 = test: Antitumor activity against human HT-29 cells assessed as cell growth at 0.1 uM; assay type: functional; conditions: read-out: Activity
HCT-116 = test: Antitumor activity against human HCT116 cells assessed as cell growth at 0.1 uM; assay type: functional; conditions: read-out: Activity
[1] = Antitumor activity against human HCC2998 cells assessed as cell growth at 0.1 uM; assay type: functional; conditions: HCC 2998, read-out: Activity
NCI-H460 = test: Antitumor activity against human NCI-H460 cells assessed as cell growth at 0.1 uM; assay type: functional; conditions: read-out: Activity
NCI-H522 = test: Antitumor activity against human NCI-H522 cells assessed as cell growth at 0.1 uM; assay type: functional; conditions: read-out: Activity
NCI-H23 = test: Antitumor activity against human NCI-H23 cells assessed as cell growth at 0.1 uM; assay type: functional; conditions: read-out: Activity
NCI-H226 = test: Antitumor activity against human NCI-H226 cells assessed as cell growth at 0.1 uM; assay type: functional; conditions: read-out: Activity
HOP-62 = test: Antitumor activity against human HOP62 cells assessed as cell growth at 0.1 uM; assay type: functional; conditions: read-out: Activity
HOP-92 = test: Antitumor activity against human HOP92 cells assessed as cell growth at 0.1 uM; assay type: functional; conditions: read-out: Activity
[2] = Antitumor activity against human EKVX cells assessed as cell growth at 0.1 uM; assay type: functional; conditions: read-out: Activity
A549 = test: Antitumor activity against human A549/ATCC cells assessed as cell growth at 0.1 uM; assay type: functional; conditions: read-out: Activity
SR = test: Antitumor activity against human SR cells assessed as cell growth at 0.1 uM; assay type: functional; conditions: read-out: Activity
MOLT-4 = test: Antitumor activity against human MOLT4 cells assessed as cell growth at 0.1 uM; assay type: functional; conditions: read-out: Activity
RPMI-8226 = test: Antitumor activity against human RPMI8226 cells assessed as cell growth at 0.1 uM; assay type: functional; conditions: read-out: Activity
K562 = test: Antitumor activity against human K562 cells assessed as cell growth at 0.1 uM; assay type: functional; conditions: read-out: Activity
HL-60 = test: Antitumor activity against human HL60(TB) cells assessed as cell growth at 0.1 uM; assay type: functional; conditions: read-out: Activity
CCRF-CEM = test: Antitumor activity against human CCRF-CEM cells assessed as cell growth at 0.1 uM; assay type: functional; conditions: read-out: Activity
[3] = system: Mycobacterium tuberculosis; test: Antitubercular activity against Mycobacterium tuberculosis H37Rv assessed as growth inhibition after 12 to 28 days by L.J. agar MIC method; assay type: functional
Aspergillus clavatus = test: Antimicrobial activity against Aspergillus clavatus MTCC 1323 assessed as growth inhibition measured after overnight incubation by broth dilution method; assay type: functional
Aspergillus niger = test: Antimicrobial activity against Aspergillus niger MTCC 282 assessed as growth inhibition measured after overnight incubation by broth dilution method; assay type: functional
Candida albicans = test: Antimicrobial activity against Candida albicans MTCC 227 assessed as growth inhibition measured after overnight incubation by broth dilution method; assay type: functional
Pseudomonas aeruginosa = test: Antimicrobial activity against Pseudomonas aeruginosa MTCC 2488 assessed as growth inhibition measured after overnight incubation by broth dilution method; assay type: functional
Escherichia coli = test: Antimicrobial activity against Escherichia coli MTCC 443 assessed as growth inhibition measured after overnight incubation by broth dilution method; assay type: functional
Streptococcus pyogenes = test: Antimicrobial activity against Streptococcus pyogenes MTCC 442 assessed as growth inhibition measured after overnight incubation by broth dilution method; assay type: functional
Staphylococcus aureus = test: Antimicrobial activity against Staphylococcus aureus MTCC 96 assessed as growth inhibition measured after overnight incubation by broth dilution method; assay type: functional
MDA-MB-468 = test: Antitumor activity against human MDA-MB-468 cells assessed as cell growth at 0.1 uM; assay type: functional; conditions: read-out: Activity
T47D = test: Antitumor activity against human T47D cells assessed as cell growth at 0.1 uM; assay type: functional; conditions: read-out: Activity
[4] = Antitumor activity against human Hs 578T cells assessed as cell growth at 0.1 uM; assay type: functional; conditions: read-out: Activity
BT-549 = test: Antitumor activity against human BT549 cells assessed as cell growth at 0.1 uM; assay type: functional; conditions: read-out: Activity
MDA-MB-231 = test: Antitumor activity against human MDA-MB-231/ATCC cells assessed as cell growth at 0.1 uM; assay type: functional; conditions: read-out: Activity
DU-145 = test: Antitumor activity against human DU145 cells assessed as cell growth at 0.1 uM; assay type: functional; conditions: read-out: Activity
MCF7 = test: Antitumor activity against human MCF7 cells assessed as cell growth at 0.1 uM; assay type: functional; conditions: read-out: Activity
PC-3 = test: Antitumor activity against human PC3 cells assessed as cell growth at 0.1 uM; assay type: functional; conditions: read-out: Activity
SK-MEL-2 = test: cells; conditions: Homo sapiens, SK-MEL-2, read-out: Activity
Description: Antitumor activity against human SK-MEL-2 cells assessed as cell growth at 0.1 uM

SMILES: Cc1ccc2sc(-c3ccc(NC(=O)CSc4nnc(-c5cccnc5SCc5ccccc5)o4)cc3)nc2c1
- growth at 0.1 µM (UO-31): 59.3%
- growth at 0.1 µM (TK-10): 118%
- growth at 0.1 µM (SN12C): 102%
- growth at 0.1 µM (RXF 393): 114%
- growth at 0.1 µM (ACHN): 90.8%
- growth at 0.1 µM (CAKI-1): 87.8%
- growth at 0.1 µM (A498): 105%
- growth at 0.1 µM (SK-OV-3): 105%
- growth at 0.1 µM (NCI/ADR-RES): 99.5%
- growth at 0.1 µM (OVCAR-8): 94.3%
- growth at 0.1 µM (OVCAR-5): 107%
- growth at 0.1 µM (OVCAR-3): 100%
- growth at 0.1 µM (OVCAR-4): 98.8%
- growth at 0.1 µM (IGROV-1): 99.7%
- growth at 0.1 µM (UACC-62): 104%
- growth at 0.1 µM (UACC-257): 113%
- growth at 0.1 µM (SK-MEL-5): 89.9%
- growth at 0.1 µM (SK-MEL-28): 114%
- growth at 0.1 µM (MDA-MB-435): 107%
- growth at 0.1 µM (M14): 97.4%
- growth at 0.1 µM (Malme-3M): 99.3%
- growth at 0.1 µM (LOX IMVI): 93.6%
- growth at 0.1 µM (U-251): 106%
- growth at 0.1 µM (SNB-75): 95.6%
- growth at 0.1 µM (SF-539): 92.9%
- growth at 0.1 µM (SNB-19): 104%
- growth at 0.1 µM (SF-295): 107%
- growth at 0.1 µM (SF-268): 91.6%
- growth at 0.1 µM (SW-620): 104%
- growth at 0.1 µM (HCT-15): 111%
- growth at 0.1 µM (HT-29): 100%
- growth at 0.1 µM (HCT-116): 95.4%
- growth at 0.1 µM [1]: 106%
- growth at 0.1 µM (NCI-H460): 101%
- growth at 0.1 µM (NCI-H522): 87.9%
- growth at 0.1 µM (NCI-H23): 96.6%
- growth at 0.1 µM (NCI-H226): 80.8%
- growth at 0.1 µM (HOP-62): 96.8%
- growth at 0.1 µM (HOP-92): 93.4%
- growth at 0.1 µM [2]: 89.9%
- growth at 0.1 µM (A549): 104%
- growth at 0.1 µM (SR): 82.6%
- growth at 0.1 µM (MOLT-4): 92.2%
- growth at 0.1 µM (RPMI-8226): 92.2%
- growth at 0.1 µM (K562): 101%
- growth at 0.1 µM (HL-60): 97.3%
- growth at 0.1 µM (CCRF-CEM): 93.1%
- growth inhibition (GI) [3]: 99%
- MIC ([3]; Mycobacterium tuberculosis, H37Rv): 62.5 µg/mL (≈ 107 µM)
- MIC (Aspergillus clavatus): 500 µg/mL (≈ 859 µM)
- MIC (Aspergillus niger): 1000 µg/mL (≈ 1720 µM)
- MIC (Candida albicans): 250 µg/mL (≈ 430 µM)
- MIC (Pseudomonas aeruginosa): 62.5 µg/mL (≈ 107 µM)
- MIC (Escherichia coli): 100 µg/mL (≈ 172 µM)
- MIC (Streptococcus pyogenes): 25 µg/mL (≈ 43 µM)
- MIC (Staphylococcus aureus): 100 µg/mL (≈ 172 µM)
- growth at 0.1 µM (MDA-MB-468): 92.2%
- growth at 0.1 µM (T47D): 87.8%
- growth at 0.1 µM [4]: 92.3%
- growth at 0.1 µM (BT-549): 91.6%
- growth at 0.1 µM (MDA-MB-231): 71.4%
- growth at 0.1 µM (DU-145): 87.5%
- growth at 0.1 µM (MCF7): 81.2%
- growth at 0.1 µM (PC-3): 91.8%
- growth at 0.1 µM (SK-MEL-2): 89.8%
